Data from patent US10059701B2 (Merck Patent GmbH, priority 2015, dated 2018).

Legend:
[1] = biological target: T1, IRAK4 (Homo sapiens, UniProt Q9NWZ3); test: IRAK4 enzymatic assay (ADP-Glo luminescence); format: biochemical; conditions: purified human recombinant His-TEV-IRAK4 (1-460), ATP 2 μM
T1 construct: His-TEV-IRAK4 (1-460); His (N); TEV cleavage site (N)
T1 sequence (Q9NWZ3 1-460): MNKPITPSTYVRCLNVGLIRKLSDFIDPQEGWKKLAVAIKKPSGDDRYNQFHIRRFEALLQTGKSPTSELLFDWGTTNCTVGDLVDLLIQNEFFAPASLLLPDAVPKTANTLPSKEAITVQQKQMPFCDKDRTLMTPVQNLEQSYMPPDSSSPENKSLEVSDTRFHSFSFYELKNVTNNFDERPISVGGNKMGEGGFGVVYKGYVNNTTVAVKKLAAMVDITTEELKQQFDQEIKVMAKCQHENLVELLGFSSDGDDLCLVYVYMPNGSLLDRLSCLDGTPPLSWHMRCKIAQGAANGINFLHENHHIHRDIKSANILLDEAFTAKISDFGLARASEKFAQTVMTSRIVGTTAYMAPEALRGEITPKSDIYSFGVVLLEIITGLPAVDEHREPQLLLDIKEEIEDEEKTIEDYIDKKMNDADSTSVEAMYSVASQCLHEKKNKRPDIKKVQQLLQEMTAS
Method in brief: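 Recombinant His-TEV-IRAK4 (1-460) at 0.3 μg/ml preincubated 15 min at RT with compounds (10 μM to 0.5 nM) in Hepes pH 7.0 buffer with MgCl2/MnCl2. Reaction started with 2 μM ATP and 300 nM STK1-biotin peptide, run 2 h at RT. ADP formed read by ADP-Glo luminescence.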

[2] = biological target: T2, IRAK1 (Homo sapiens, UniProt P51617); test: IRAK1 enzymatic assay (ADP-Glo luminescence); format: biochemical; conditions: purified human recombinant His-TEV-IRAK1 (194-712)
T2 construct: His-TEV-IRAK1 (194-712); His (N); TEV cleavage site (N)
T2 sequence (P51617 194-712): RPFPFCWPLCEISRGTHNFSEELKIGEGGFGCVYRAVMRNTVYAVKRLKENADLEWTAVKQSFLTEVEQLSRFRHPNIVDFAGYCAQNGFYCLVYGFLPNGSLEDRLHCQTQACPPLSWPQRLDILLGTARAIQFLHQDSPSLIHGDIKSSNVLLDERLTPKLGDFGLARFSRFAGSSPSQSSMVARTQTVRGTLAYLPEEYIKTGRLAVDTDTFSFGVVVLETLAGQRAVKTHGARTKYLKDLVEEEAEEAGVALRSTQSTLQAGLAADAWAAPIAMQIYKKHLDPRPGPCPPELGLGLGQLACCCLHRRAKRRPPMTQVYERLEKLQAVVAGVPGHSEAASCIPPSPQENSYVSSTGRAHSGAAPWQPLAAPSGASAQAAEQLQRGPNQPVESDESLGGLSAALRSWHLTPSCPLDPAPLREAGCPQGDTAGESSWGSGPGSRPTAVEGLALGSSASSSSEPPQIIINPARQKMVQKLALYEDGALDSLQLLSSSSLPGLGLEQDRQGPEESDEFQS
Method in brief: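 Recombinant human His-TEV-IRAK1 (194-712), 0.3 μg/ml, preincubated 15 min at RT with compounds (10 μM to 0.5 nM) in 50 mM Hepes pH 7.0, 10 mM MgCl2, 2 mM DTT, 0.1% BSA. ATP-started reaction run 2 hours at RT; ADP formed from ATP hydrolysis/autophosphorylation read by ADP-Glo luminescence.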

SMILES	IC50 [1] [nM]	IC50 [2] [nM]
O=C(/N=c1\[nH]c2cc(N3CCSCC3=O)ccc2n1CCCO)c1cccc(C(F)(F)F)c1 [Compound 186, (E)-N-(1-(3-hydroxypropyl)-5-(3-oxothiomorpholino)-1H-benzo[d]imidazol-2(3H)-ylidene)-3-(trifluoromethyl)benzamide]	≤ 100	100 to 1000
CN1CCCN(c2ccc3c(c2)[nH]/c(=N\C(=O)c2cccc(C(F)(F)F)c2)n3CCCO)C1=O [Example 224, (E)-N-(1-(3-hydroxypropyl)-5-(3-methyl-2-oxotetrahydropyrimidin-1(2H)-yl)-1H-benzo[d]imidazol-2(3H)-ylidene)-3-(trifluoromethyl)benzamide]	≤ 100	100 to 1000
CC(C)(C)OC(=O)N1CCC(n2/c(=N/C(=O)c3cccc(C(F)(F)F)c3)[nH]c3cc(N4CCOCC4=O)ccc32)CC1 [Compound 126, (E)-tert-butyl 4-(5-(3-oxomorpholino)-2-((3-(trifluoromethyl)benzoyl)imino)-2,3-dihydro-1H-benzo[d]imidazole-1-yl)piperidine-1-carboxylate]	≤ 100	> 1000
CC(C)(C)Cn1/c(=N/C(=O)c2cccc(C(F)(F)F)c2)[nH]c2cc(N3CCCOC3=O)ccc21 [Compound 173, (E)-N-(1-neopentyl-5-(2-oxo-1,3-oxazinan-3-yl)-1H-benzo[d]imidazol-2(3H)-ylidene)-3-(trifluoromethyl)benzamide]	≤ 100	100 to 1000
[2H]C([2H])([2H])Oc1cc2c(cc1N1CCOCC1=O)[nH]/c(=N\C(=O)c1cccc(C(F)(F)F)c1)n2CCCO [Example 202, (E)-N-(1-(3-hydroxypropyl)-6-(trideuteromethoxy)-5-(3-oxomorpholino)-1H-benzo[d]imidazol-2(3H)-ylidene)-3-(trifluoromethyl)benzamide]	≤ 100	≤ 100
C[C@H](CCO)n1/c(=N/C(=O)c2cccc(C#N)c2)[nH]c2cc(N3CCCOC3=O)ccc21 [Compound 42, (R,E)-3-cyano-N-(1-(4-hydroxybutan-2-yl)-5-(2-oxo-1,3-oxazinan-3-yl)-1H-benzo[d]imidazol-2(3H)-ylidene)benzamide]	≤ 100	100 to 1000
O=C(/N=c1\[nH]c2cc(-n3ccccc3=O)ccc2n1CCCO)c1cccc(C(F)F)c1 [Example 194, (E)-3-(difluoromethyl)-N-(1-(3-hydroxypropyl)-5-(2-oxopyridin-1(2H)-yl)-1H-benzo[d]imidazol-2(3H)-ylidene)benzamide]	≤ 100	100 to 1000
O=C(/N=c1\[nH]c2cc(N3CCOCC3=O)ccc2n1CCCO)c1cccc(-c2ccn(C(F)F)c(=O)c2)c1 [Compound 164, (E)-3-(1-(difluoromethyl)-2-oxo-1,2-dihydropyridin-4-yl)-N-(1-(3-hydroxypropyl)-5-(3-oxomorpholino)-1H-benzo[d]imidazol-2(3H)-ylidene)benzamide]	≤ 100	100 to 1000
O=C(/N=c1\[nH]c2cc(N3CCOCC3=O)ccc2n1CCCO)c1cccc(C(F)F)c1 [Compound 79, (E)-3-(difluoromethyl)-N-(1-(3-hydroxypropyl)-5-(3-oxomorpholino)-1H-benzo[d]imidazol-2(3H)-ylidene)benzamide]	≤ 100	≤ 100
O=C(/N=c1\[nH]c2cc(N3CCOCC3=O)ccc2n1CCCO)c1cccc(OC(F)F)c1 [Compound 6, (E)-3-(difluoromethoxy)-N-(1-(3-hydroxypropyl)-5-(3-oxomorpholino)-1H-benzo[d]imidazol-2(3H)-ylidene)benzamide]	≤ 100	100 to 1000
N#Cc1cccc(C(=O)/N=c2\[nH]c3cc(N4CCCOC4=O)ccc3n2CC2CCCCO2)c1 (stereo not drawn) [Compound 161, (E)-3-cyano-N-(5-(2-oxo-1,3-oxazinan-3-yl)-1-((tetrahydro-2H-pyran-2-yl)methyl)-1H-benzo[d]imidazol-2(3H)-ylidene)benzamide]	≤ 100	≤ 100
O=C(/N=c1\[nH]c2cc(N3CCOCC3=O)ccc2n1CCCO)c1cccc(C(=O)N2CCOCC2)c1 [Compound 36, (E)-N-(1-(3-hydroxypropyl)-5-(3-oxomorpholino)-1H-benzo[d]imidazol-2(3H)-ylidene)-3-(morpholine-4-carbonyl)benzamide]	> 1000	100 to 1000

Further lines, results first:

IC50 [1] [nM]	IC50 [2] [nM]	SMILES
≤ 100	≤ 100	COc1cc2c(cc1N1CCOCC1=O)[nH]/c(=N\C(=O)c1cc(F)cc(C(F)(F)F)c1)n2CCCO [Compound 73, (E)-3-fluoro-N-(1-(3-hydroxypropyl)-6-methoxy-5-(3-oxomorpholino)-1H-benzo[d]imidazol-2(3H)-ylidene)-5-(trifluoromethyl)benzamide]
≤ 100	≤ 100	O=C(/N=c1\[nH]c2cc(N3CCN(CC4CC4)CC3=O)ccc2n1CCCO)c1cccc(C(F)F)c1 [Compound 112, (E)-N-(5-(4-(cyclopropylmethyl)-2-oxopiperazin-1-yl)-1-(3-hydroxypropyl)-1H-benzo[d]imidazol-2(3H)-ylidene)-3-(difluoromethyl)benzamide]
≤ 100	≤ 100	O=C(/N=c1\[nH]c2cc(N3CCCOCC3=O)ccc2n1CCCO)c1cccc(C(F)(F)F)c1 [Compound 193, (E)-N-(1-(3-hydroxypropyl)-5-(3-oxo-1,4-oxazepan-4-yl)-1H-benzo[d]imidazol-2(3H)-ylidene)-3-(trifluoromethyl)benzamide]
≤ 100	100 to 1000	CN1CCCN(c2ccc3c(c2)[nH]/c(=N\C(=O)c2cccc(C(F)F)c2)n3CCCO)C1=O [Example 225, (E)-N-(1-(3-hydroxypropyl)-5-(3-methyl-2-oxotetrahydropyrimidin-1(2H)-yl)-1H-benzo[d]imidazol-2(3H)-ylidene)-3-(difluoromethyl)benzamide]
≤ 100	≤ 100	CC1(C)CCOC(=O)N1c1ccc2c(c1)[nH]/c(=N\C(=O)c1cccc(C(F)(F)F)c1)n2CCCO [Example 220, (E)-3-(trifluoromethyl)-N-(5-(4,4-dimethyl-2-oxo-1,3-oxazinan-3-yl)-1-(3-hydroxypropyl)-1H-benzo[d]imidazol-2(3H)-ylidene)benzamide]
≤ 100	≤ 100	CC1(C)OCCN(c2ccc3c(c2)[nH]/c(=N\C(=O)c2cccc(C(F)(F)F)c2)n3CCCO)C1=O [Example 223, (E)-3-(trifluoromethyl)-N-(5-(2,2-dimethyl-3-oxomorpholino)-1-(3-hydroxypropyl)-1H-benzo[d]imidazol-2(3H)-ylidene)benzamide]
≤ 100	≤ 100	O=C(/N=c1\[nH]c2cc(N3CCOCC3=O)ccc2n1CCCO)c1cccc(SC(F)(F)F)c1 [Compound 151, (E)-N-(1-(3-hydroxypropyl)-5-(3-oxomorpholino)-1H-benzo[d]imidazol-2(3H)-ylidene)-3-((trifluoromethyl)thio)benzamide]
≤ 100	≤ 100	[2H]C([2H])([2H])Oc1cc2c(cc1N1CCCOC1=O)[nH]/c(=N\C(=O)c1cccc(C(F)F)c1)n2CCCO [Example 205, (E)-3-(difluoromethyl)-N-(1-(3-hydroxypropyl)-6-(trideuteromethoxy)-5-(2-oxo-1,3-oxazinan-3-yl)-1H-benzo[d]imidazol-2(3H)-ylidene)benzamide]
≤ 100	≤ 100	Cc1cc2c(cc1N1CCOCC1=O)[nH]/c(=N\C(=O)c1cccc(C(F)F)c1)n2CCCO [Compound 69, (E)-3-(difluoromethyl)-N-(1-(3-hydroxypropyl)-6-methyl-5-(3-oxomorpholino)-1H-benzo[d]imidazol-2(3H)-ylidene)benzamide]
≤ 100	≤ 100	COc1cc2c(cc1N1CCCOC1=O)[nH]/c(=N\C(=O)c1cccc(C(F)(F)F)c1)n2CCCO [Example 206, (E)-N-(1-(3-hydroxypropyl)-6-methoxy-5-(2-oxo-1,3-oxazinan-3-yl)-1H-benzo[d]imidazol-2(3H)-ylidene)-3-(trifluoromethyl)benzamide]
≤ 100	100 to 1000	N#Cc1cccc(C(=O)/N=c2\[nH]c3cc(N4CCOCC4=O)ccc3n2CCCCO)c1 [Compound 18, (E)-3-cyano-N-(1-(4-hydroxybutyl)-5-(3-oxomorpholino)-1H-benzo[d]imidazol-2(3H)-ylidene)benzamide]
≤ 100	≤ 100	O=C(/N=c1\[nH]c2cc(N3CCCOC3=O)ccc2n1CCCO)c1cccc(C(F)(F)F)c1 [Compound 33, (E)-N-(1-(3-hydroxypropyl)-5-(2-oxo-1,3-oxazinan-3-yl)-1H-benzo[d]imidazol-2(3H)-ylidene)-3-(trifluoromethyl)benzamide]
